Biological target: T1, hFASN enzyme (full length) (Homo sapiens, UniProt P49327)
T1 construct: 10 μL hFASN enzyme (full length, 300 ng, purified in house); made in house
Assay: Fatty Acid Synthase (FASN) inhibition scintillation proximity assay
Type: biochemical
Conditions: for inhibition at 10 µM: read-out: Human FASN % inhibition @ 10 μM, 10 μM test compound; for IC50: read-out: Human FASN pIC50 (converted)
Summary of the method: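 Compounds at 0.01–30 μM were mixed with 300 ng purified full-length enzyme in 100 mM KH2PO4 pH 7.5, 1 mM DTT. Substrates ³H-acetyl-CoA and malonyl-CoA were then converted, and bead addition stopped the reaction. Signal was normalised to low and high plate controls and fitted by 4-parameter nonlinear regression.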

T1 sequence (P49327 whole entry): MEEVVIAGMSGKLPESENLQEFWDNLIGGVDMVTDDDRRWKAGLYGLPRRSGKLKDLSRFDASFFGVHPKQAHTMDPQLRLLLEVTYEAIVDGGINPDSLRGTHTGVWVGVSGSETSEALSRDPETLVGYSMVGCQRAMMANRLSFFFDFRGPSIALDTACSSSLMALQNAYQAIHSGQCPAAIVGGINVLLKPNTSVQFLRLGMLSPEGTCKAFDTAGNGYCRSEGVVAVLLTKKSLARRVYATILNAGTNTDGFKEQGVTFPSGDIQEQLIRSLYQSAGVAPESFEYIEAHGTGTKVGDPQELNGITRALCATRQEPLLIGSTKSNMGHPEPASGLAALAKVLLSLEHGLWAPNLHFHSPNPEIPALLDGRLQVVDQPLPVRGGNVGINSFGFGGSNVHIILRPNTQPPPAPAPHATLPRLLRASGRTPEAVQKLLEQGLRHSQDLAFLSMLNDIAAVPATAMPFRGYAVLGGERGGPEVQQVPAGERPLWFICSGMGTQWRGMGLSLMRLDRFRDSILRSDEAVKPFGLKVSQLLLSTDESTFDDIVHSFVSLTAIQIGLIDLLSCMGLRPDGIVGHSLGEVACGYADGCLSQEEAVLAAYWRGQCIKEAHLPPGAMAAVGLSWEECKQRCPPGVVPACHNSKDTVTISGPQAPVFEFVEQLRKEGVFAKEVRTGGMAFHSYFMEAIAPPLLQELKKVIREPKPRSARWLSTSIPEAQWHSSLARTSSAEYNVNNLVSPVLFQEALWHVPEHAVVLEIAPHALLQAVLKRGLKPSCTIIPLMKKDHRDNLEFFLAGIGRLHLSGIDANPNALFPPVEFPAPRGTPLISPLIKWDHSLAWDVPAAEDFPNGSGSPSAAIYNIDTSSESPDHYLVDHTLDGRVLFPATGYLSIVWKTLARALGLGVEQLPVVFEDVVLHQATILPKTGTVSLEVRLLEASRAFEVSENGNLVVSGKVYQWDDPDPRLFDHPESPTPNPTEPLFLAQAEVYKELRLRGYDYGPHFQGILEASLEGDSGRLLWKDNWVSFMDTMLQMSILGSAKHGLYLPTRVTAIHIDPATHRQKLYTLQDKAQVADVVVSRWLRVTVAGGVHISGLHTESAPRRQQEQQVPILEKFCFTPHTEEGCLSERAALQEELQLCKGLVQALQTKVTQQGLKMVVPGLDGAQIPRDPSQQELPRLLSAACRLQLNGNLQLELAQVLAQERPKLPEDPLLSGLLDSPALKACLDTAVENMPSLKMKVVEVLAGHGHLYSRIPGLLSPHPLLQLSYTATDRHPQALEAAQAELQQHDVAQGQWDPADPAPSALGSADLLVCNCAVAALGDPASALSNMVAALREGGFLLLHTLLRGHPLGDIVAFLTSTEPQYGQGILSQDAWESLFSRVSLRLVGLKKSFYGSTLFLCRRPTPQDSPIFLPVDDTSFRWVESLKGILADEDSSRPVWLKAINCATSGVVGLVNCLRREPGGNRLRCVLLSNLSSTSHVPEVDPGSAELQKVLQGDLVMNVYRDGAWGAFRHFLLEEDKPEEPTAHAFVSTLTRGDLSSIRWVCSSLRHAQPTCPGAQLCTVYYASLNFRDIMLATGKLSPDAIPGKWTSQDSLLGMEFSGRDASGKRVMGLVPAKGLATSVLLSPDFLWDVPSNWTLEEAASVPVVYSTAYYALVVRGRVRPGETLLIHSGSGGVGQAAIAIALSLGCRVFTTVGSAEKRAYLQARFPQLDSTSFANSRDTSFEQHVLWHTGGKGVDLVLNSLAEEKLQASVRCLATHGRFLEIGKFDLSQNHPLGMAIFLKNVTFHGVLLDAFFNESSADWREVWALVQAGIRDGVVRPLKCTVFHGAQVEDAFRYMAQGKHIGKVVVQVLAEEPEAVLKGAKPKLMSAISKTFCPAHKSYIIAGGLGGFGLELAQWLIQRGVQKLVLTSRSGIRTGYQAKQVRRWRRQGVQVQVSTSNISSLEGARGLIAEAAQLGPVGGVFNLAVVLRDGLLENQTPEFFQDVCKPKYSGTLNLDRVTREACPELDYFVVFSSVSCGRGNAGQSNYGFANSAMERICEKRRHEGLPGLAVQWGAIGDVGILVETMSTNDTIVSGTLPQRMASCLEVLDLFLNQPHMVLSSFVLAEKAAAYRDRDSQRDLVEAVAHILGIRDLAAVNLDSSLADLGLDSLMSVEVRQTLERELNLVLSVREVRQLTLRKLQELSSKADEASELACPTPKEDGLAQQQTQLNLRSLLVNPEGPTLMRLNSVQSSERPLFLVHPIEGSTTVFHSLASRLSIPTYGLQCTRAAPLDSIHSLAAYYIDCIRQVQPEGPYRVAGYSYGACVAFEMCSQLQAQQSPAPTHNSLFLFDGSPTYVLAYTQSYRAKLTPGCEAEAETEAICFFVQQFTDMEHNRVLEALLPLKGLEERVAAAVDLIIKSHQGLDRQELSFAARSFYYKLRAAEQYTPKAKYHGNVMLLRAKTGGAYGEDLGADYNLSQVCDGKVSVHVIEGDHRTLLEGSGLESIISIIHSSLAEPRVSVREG

inhibition at 10 µM [%] | IC50 [µM] | Compound
81 | 1.17 | Cn1nc2ccc(-c3ccc(C4=NC5(CC5)C(=O)N4C[C@@H]4CCN(C(=O)C5CC5)C4)cc3)cc2c1CO [compound 487, 6-{[(3R)-1-(Cyclopropylcarbonyl)pyrrolidin-3-yl]methyl}-5-{4-[3-(hydroxymethyl)-2-methyl-2H-indazol-5-yl]phenyl}-4,6-diazaspiro[2.4]hept-4-en-7-one]
77 | 1 | Cc1cc(-c2ccc(C3=NC4(CC4)C(=O)N3CC3CN(C(=O)C4CC4)C3)cc2)cc2cnn(C)c12 [compound 492, 6-{[1-(Cyclopropylcarbonyl)azetidin-3-yl]methyl}-5-[4-(1,7-dimethyl-1H-indazol-5-yl)phenyl]-4,6-dazaspiro[2.4]hept-4-en-7-one]
74 | ~2.75 | Cn1c(=O)c2cc(-c3ccc(C4=NC5(CC5)C(=O)N4C[C@@H]4CCN(C(=O)C5CC5)C4)cc3)ccc2n1C [compound 500, 5-[4-(6-{[(3R)-1-(Cyclopropylcarbonyl)pyrrolidin-3-yl]methyl}-7-oxo-4,6-diazaspiro[2.4]hept-4-rn-5-yl)phenyl]-1,2-dimethyl-1,2-dihydro-3H-indazol-3-one]
52 | 8.32 | O=C(C1CC1)N1CC(CN2C(=O)C3(CC3)N=C2c2ccc(-c3ccc4nn(CC5CC5)cc4c3)cc2)C1 [compound 501, 6-{[1-(Cyclopropylcarbonyl)azetidin-3-yl]methyl}-5-{4-[2-(cyclopropylmethyl)-2H-indazol-5-yl]phenyl}-4,6-diazaspiro[2.4]hept-4-en-7-one]
58 | 5.75 | Cn1ncc2cc(-c3ccc(C4=NC5(CC5)C(=O)N4CC4CN(C(=O)C5CC5)C4)cc3)cnc21 [compound 503, 6-{[1-(Cyclopropylcarbonyl)azetidin-3-yl]methyl}-5-[4-(1-methyl-1H-pyrazolo[3,4-b]pyridin-5-yl)phenyl]-4,6-diazaspiro[2.4]hept-4-en-7-one]
42 | 8.51 | O=C(C1CC1)N1CC(CN2C(=O)C3(CC3)N=C2c2ccc(-c3ccc4oncc4c3)cc2)C1 [compound 504, 5-[4-(1,2-Benzisoxazol-5-yl)phenyl]-6-{[1-(cyclopropylcarbonyl)azetidin-3-yl]methyl}-4,6-diazaspiro[2.4]hept-4-en-7-one]
80 | 1.17 | CCn1ncc2cc(-c3ccc(C4=NC5(CC5)C(=O)N4CC4CN(C(=O)C5CC5)C4)cc3)ccc21 [compound 505, 6-{[1-(Cyclopropylcarbonyl)azetidin-3-yl]methyl}-5-[4-(1-ethyl-1H-indazol-5-yl)phenyl]-4,6-diazaspiro[2.4]hept-4-en-7-one]
61 | 3.39 | CCn1cc2cc(-c3ccc(C4=NC5(CC5)C(=O)N4CC4CN(C(=O)C5CC5)C4)cc3)ccc2n1 [compound 506, 6-{[1-(Cyclopropylcarbonyl)azetidin-3-yl]methyl}-5-[4-(2-ethyl-2H-indazol-5-yl)phenyl]-4,6-diazaspiro[2.4]hept-4-en-7-one]
74 | 2.88 | CC(C)n1ccc2cc(-c3ccc(C4=NC5(CC5)C(=O)N4CC4CN(C(=O)C5CC5)C4)cc3)ccc21 [compound 508, 6-{[1-(Cyclopropylcarbonyl)azetidin-3-yl]methyl}-5-{4-[1-(1-methylethyl)-1H-indol-5-yl]phenyl}-4,6-diazaspiro[2.4]hept-4-en-7-one]
69 | 2 | O=C(C1CC1)N1CC(CN2C(=O)C3(CC3)N=C2c2ccc(-c3ccc(-n4ccnc4)nc3)cc2)C1 [compound 509, 6-{[1-(Cyclopropylcarbonyl)azetidin-3-yl]methyl}-5-{4-[6-(1H-imidazol-1-yl)pyridin-3-yl]phenyl}-4,6-diazaspiro[2.4]hept-4-en-7-one]
85 | 1.23 | Cc1ccc2ccc(-c3ccc(C4=NC5(CC5)C(=O)N4CC4CN(C(=O)C5CC5)C4)cc3)cc2n1 [compound 513, 6-{[1-(Cyclopropylcarbonyl)azetidin-3-yl]methyl}-5-[4-(2-methylquinolin-7-yl)phenyl]-4,6-diazaspiro[2.4]hept-4-en-7-one]
56 | 7.41 | Cn1nccc1-c1ccc(-c2ccc(C3=NC4(CC4)C(=O)N3CC3CN(C(=O)C4CC4)C3)cc2)cc1 [compound 514, 6-{[1-(Cyclopropylcarbonyl)azetidin-3-yl]methyl}-5-[4′-(1-methyl-1H-pyrazol-5-yl)biphenyl-4-yl]-4,6-diazaspiro[2.4]hept-4-en-7-one]
83 | 1.17 | CC(C)n1cc(-c2ccc(-c3ccc(C4=NC5(CC5)C(=O)N4CC4CN(C(=O)C5CC5)C4)cc3)cn2)cn1 [compound 516, 6-{[1-(Cyclopropylcarbonyl)azetidin-3-yl]methyl}-5-(4-{6-[1-(1-methylethyl)-1H-pyrazol-4-yl]pyridin-3-yl}phenyl)-4,6-diazaspiro[2.4]hept-4-en-7-one]
74 | 2 | CC(O)C(=O)N1CC[C@@H](CN2C(=O)C3(CCOCC3)N=C2c2ccc(-c3ccc(-c4cnn(C)c4)cc3)cc2)C1 (stereo partly drawn) [compound 656, 3-{[(3R)-1-(2-Hydroxypropanoyl)pyrrolidin-3-yl]methyl}-2-[4′-(1-methyl-1H-pyrazol-4-yl)biphenyl-4-yl]-8-oxa-1,3-diazaspiro[4.5]dec-1-en-4-one]
52 | 8.71 | COC(=O)N1CC[C@@H](CN2C(=O)C3(CCOCC3)N=C2c2ccc(-c3ccc(-c4cnn(C)c4)cc3)cc2)C1 [compound 658, Methyl (3S)-3-({2-[4′-(1-methyl-1H-pyrazol-4-yl)biphenyl-4-yl]-4-oxo-8-oxa-1,3-diazaspiro[4.5]dec-1-en-3-yl}methyl)pyrrolidin-1-carboxlate]
38 | ~8.32 | Cn1cc(-c2ccc(-c3ccc(C4=NC5(CCOCC5)C(=O)N4C[C@@H]4CCN(C(=O)C(F)(F)F)C4)cc3)cc2)cn1 [compound 659, 2-[4′-(1-Methyl-1H-pyrazol-4-yl)biphenyl-4-yl]-3-{[(3R)-1-(trifluoroacetyl)pyrrolidin-3-yl]methyl}-8-oxa-1,3-diazaspiro[4.5]dec-1-en-4-one]
76 | 2.24 | Cn1cc(-c2ccc(-c3ccc(C4=NC5(CCOCC5)C(=O)N4C[C@@H]4CCN(C(=O)N5CCCC5)C4)cc3)cc2)cn1 [compound 660, 2-[4′-(1-Methyl-1H-pyrazol-4-yl)biphenyl-4-yl]-3-{[(3S)-1-(pyrrolidin-1-ylcarbonyl)pyrrolidin-3-yl]methyl}-8-oxa-1,3-diazaspiro[4.5]dec-1-en-4-one]
62 | ~5.01 | O=C(c1nccs1)N1CC[C@@H](CN2C(=O)C3(CCOCC3)N=C2c2ccc(-c3ccc4cccnc4c3)cc2)C1 [compound 666, 2-(4-Quinolin-7-ylphenyl)-3-{[(3R)-1-(1,3-thiazol-2-ylcarbonyl)pyrrolidin-3-yl]methyl}-8-oxa-1,3-diazaspiro[4.5]dec-1-en-4-one]
86 | 1.17 | CC(O)C(=O)N1CC[C@@H](CN2C(=O)C3(CCOCC3)N=C2c2ccc(-c3ccc4occc4c3)cc2)C1 (stereo partly drawn) [compound 668, 2-[4-(1-Benzofuran-5-yl)phenyl]-3-{[(3R)-1-(2-hydroxypropanoyl)pyrrolidin-3-yl]methyl}-8-oxa-1,3-diazaspiro[4.5]dec-1-en-4-one]
56 | ~7.59 | O=C(N1CC[C@@H](CN2C(=O)C3(CCOCC3)N=C2c2ccc(-c3ccc4occc4c3)cc2)C1)C(F)(F)F [compound 670, 2-[4-(1-Benzofuran-5-yl)phenyl]-3-{[(3R)-1-(trifluoroacetyl)pyrrolidin-3-yl]methyl}-8-oxa-1,3-diazaspiro[4.5]dec-1-en-4-one]
76 | 1.66 | O=C(N1CCCC1)N1CC[C@@H](CN2C(=O)C3(CCOCC3)N=C2c2ccc(-c3ccc4occc4c3)cc2)C1 [compound 671, 2-[4-(1-Benzofuran-5-yl)phenyl]-3-{[(3S)-1-(pyrrolidin-1-ylcarbonyl)pyrrolidin-3-yl]methyl}-8-oxa-1,3-diazaspiro[4.5]dec-1-en-4-one]
61 | 5.5 | CC(O)C(=O)N1CC[C@@H](CN2C(=O)C3(CCOCC3)N=C2c2ccc(-c3ccc4c(cnn4C)c3)cc2)C1 (stereo partly drawn) [compound 673, 3-{[(3R)-1-(2-Hycdroxypropanoyl)pyrrolidin-3-yl]methyl}-2-[4-(1-methyl-1H-indazol-5-yl)phenyl]-8-oxa-1,3-diazaspiro[4.5]dec-1-en-4-one]
66 | 2.82 | Cn1ncc2cc(-c3ccc(C4=NC5(CCOCC5)C(=O)N4C[C@@H]4CCN(C(=O)N5CCCC5)C4)cc3)ccc21 [compound 675]
63 | ~7.08 | CC(O)C(=O)N1CC[C@@H](CN2C(=O)C3(CCOC3)N=C2c2ccc(-c3ccc(-c4cnn(C)c4)cc3)cc2)C1 (stereo partly drawn) [compound 677, 3-{[(3R)-1-(2-Hydroxypropanoyl)pyrrolidin-3-yl]methyl}-2-[4′-(1-methyl-1H-pyrazol-4-yl)biphenyl-4-yl]-7-oxa-1,3-diazaspiro[4.4]non-1-en-4-one]
57 | ~6.17 | Cn1cc(-c2ccc(-c3ccc(C4=NC5(CCOC5)C(=O)N4C[C@@H]4CCN(C(=O)N5CCCC5)C4)cc3)cc2)cn1 (stereo partly drawn) [compound 679, 2-[4′-(1-Methyl-1H-pyrazol-4-yl)biphenyl-4-yl]-3-{[(3S)-1-(pyrrolidin-1-ylcarbonyl)pyrrolidin-3-yl]methyl}-7-oxa-1,3-diazaspiro[4.4]non-1-en-4-one]
61 | 4.27 | O=C(N1CC[C@@H](CN2C(=O)C3(CCOC3)N=C2c2ccc(-c3ccc4cccnc4c3)cc2)C1)C(F)(F)F (stereo partly drawn) [compound 684, 2-(4-Quinolin-7-ylphenyl)-3-{[(3R)-1-(trifluoroacetyl)pyrrolidin-3-yl]methyl}-7-oxa-1,3-diazaspiro[4.4]non-1-en-4-one]
